# Experimental data published in patent publication US5691365A, “Nicotinic receptor antagonists in the treatment of neuropharmacological disorders” (University of Kentucky Research Foundation, priority 1995, dated 1997).
# Several values for one entry are separate records, joined by “and”; a condition that tells them apart may be missing. Equal values may be shown once. Entries after “also recorded” stand apart in the source; their conditions may differ. Read-outs that look alike come from different tables or passages of the source.
# Tests used:
# [1] = test system: rat hypothalamic and corticotropin-releasing hormone secretion; settings: cited from earlier work
# skin = settings: cited from earlier work
# [2] = animal and human experiments; cited from earlier work
# [3] = Ames type assays and chronic exposure studies; cited from earlier work
# [4] = test system: receptors that contain the α7, α8, or α9 subunits; settings: cited from earlier work
# [5] = test system: [^3 H]DA release from rat striatal slices; assay: [3H]DA release assay: compound-evoked (intrinsic agonist) release; format: cell-based
# Experimental: (§1) Biological Methods. Male Spragua-Dawley rats (150-200 g) were obtained from Harlan Laboratories (Indianapolis, Ind.) and were housed two per cage with free access to food and water in the Division of Lab Animal Resources at the College of Pharmacy at the University of Kentucky. Experimental protocols involving the animals were approved by the Institutional Animal Care and Use Committee at the University of Kentucky.
# (§2) [^3 H]DA Release Assay. Rat striatal slices (500 μm thickness, 6-8 mg wet weight) were obtained as previously described (Dwoskin and Zahniser, 1986). Slices were incubated for 30 min in Krebs' buffer ([…]; 118 NaCl, 4.7 KCl, 1.2 MgCl2, 1.0 NaH2 PO4, 1.3 CaCl2, […], 11.1 glucose, 25 NaHCO3, 0.11 L-ascorbic acid nd 0.004 disodium EDTA; pH 7.4 and saturated with 95% O2 /5% CO2) in a metabolic shaker at 34°. Slices were rinsed with 15 ml of fresh buffer and incubated for an additional 30 min in fresh buffer containing 0.1 μM [^3 H]dopamine (6 slices/3 ml). Subsequently, slices were rinsed with 15 ml of fresh buffer and transferred to a glass superfusion chamber. Slices were superfused (1.0 ml/min) for 60 min with Krebs' buffer containing nomifensine (10 μm) and pargyline (10 μm) and maintained at 34° C., pH 7.4 with continual aeration (95% O2 /5% CO2). Two 5-min samples (5 ml) were collected to determine basal outflow of [^3 H]DA. N-Substituted nicotine analogues were added to the superfusion buffer after the collection of the second sample and remained in the buffer until 12 consecutive 5-min samples were collected. […] At the end of the experiment each slice was solubilized and the [^3 H] content of the tissue determined.
# (§3) Radioactivity in the superfusate and tissue samples was determined by liquid scintillation spectroscopy. Fractional release for each superfusate sample was calculated by dividing the total tritium collected in each sample by the total tritium present in the tissue at the time of sample collection. Basal [^3 H]out flow was calculated from the average of the tritium collected in the two 5-min samples just before addition of the N-substituted nicotine analogue. The sums of the increase in collected tritium resulting from either exposure to the test compound or exposure to nicotine in the absence and presence of the test compound equaled total [^3 H]overflow. [^3 H]overflow was calculated by subtracting the [^3 H]outflow during an equivalent period of prestimulation from the values in samples collected during and after drug exposure. Inasmuch as the radiolabelled compounds were not separated and identified, the tritium collected in superfusate is referred to as either [^3 H]outflow or [^3 H]overflow, rather than as [^3 H]DA. [^3 H]Overflow primarily represents [^3 H]DA in the presence of nomifensine and pargyline in the superfusion buffer (Zumstein et al. 1981).
# [6] = test system: S(-)nicotine (10 μM)-evoked [^3 H]DA release from rat striatal slices; format: cell-based
# Experimental: as §1, §2, §3
# In these experiments, the striatal slices were superfused for 60 min with various concentrations of the analogues prior to nicotine (10 μM) exposure. Antagonist activity was evaluated by comparing the nicotine-evoked [^3 H]overflow in the absence and presence of the analogues. […] The relative order of potency of the classical and pyridine-N substituted nicotine analogues for inhibition of nicotine-evoked [^3 H]DA release from rat striatal slices is illustrated in FIG. 2 by a comparison of their IC50 values.
# FIG. 2. IC50 values for N-substituted analogues of nicotine, nornicotine, and cotinine to inhibit nicotine-evoked [^3 H]DA release from rat striatal slices. Inhibition produced by the classical nicotinic inhibitors, mecamylamine (MEC) and DHBE was also determined. Slices were superfused with inhibitor for 60 min […] co-superfusion with 10 μM nicotine. Inhibition was determined by comparing [^3 H]DA release in the absence and presence of various concentrations of inhibitor. IC50 values were determined using the Logit-log plot (pseudo-Hill plot). […] IC50 for each animal was determined as the intercept of the linear regression.
# physchem = settings: for pKa: d2o, 1H-NMR
# Experimental: (§4) pKa Determination. A solution [1 g in 12 mls of deuterium oxide 100% atom D] of the compound under investigation was gradually acidified by drop-wise addition of a solution of DC1 to D2 O (20% wt/wt, 99.5% atom D). The pD values were measured on a Corning pH meter. For each pD value, a sample (0.8 mls) was analyzed by ^1 H-NMR on a Varian Unity 300 MHz spectrometer using sodium 3(trimethylsilyl)-2,2,3,3-d4 -propionate (TSP) as internal reference. Protonation of the pyrrolidine- and pyridine-N atoms was followed by observing the variation in chemical shift of the N-1'-methyl and 2'-proton signals from pO 8.8 to pD 3.0. A titration curve of pD vs chemical shift was constructed to determine the pKa values of pyrrolidino-N atom and/or the pyridine-N atom.
# as §4, with “Computational Chemistry.” for “pKa Determination.”, “3-(trimethylsilyl)-2,2,3,3-d4” for “3(trimethylsilyl)-2,2,3,3-d4”, “N-1'methyl” for “N-1'-methyl”, “pD” for “pO”
# [7] = test system: dopamine 2 agonist binding in rat basil ganglia; settings: in vivo; cited from earlier work
# [8] = test system: rat striatal synaptosomes; settings: cited from earlier work
# rabbit caudate nucleus = settings: cited from earlier work
# nicotine receptor = settings: cited from earlier work
# [9] = Table 3, 1 μM, mean ± S.E.M., rat striatal slices
# [10] = Table 3, 10 μM, mean ± S.E.M., rat striatal slices
# [11] = Table 3, 100 μM, mean ± S.E.M., rat striatal slices
# [12] = pKa of pyrrolidino-N (N'-amino) functionality
compound,measurement,setting,value
CN1[C@@H]2CC[C@H]1C[C@@H](OC(=O)C(CO)c1ccccc1)C2 (stereo partly drawn) [atropine],effect on IR-rCRH secretion (in words),[1],This effect was antagonized by the simultaneous presence of atropine and hexamethonium
CN1CCCC1=O [N-methyl-2-pyrrolidone],skin penetration enhancement,skin,effective penetration enhancer
same,irritation or sensitization potential,[2],very little irritation or sensitization potential
same,toxicity,[3],have not revealed any significant toxicity
α-bungarotoxin,"selective blockade of nicotinic receptors with α7, α8 or α9 subunits",[4],"selectively blocks receptors that contain the α7, α8, or α9 subunits"
"C=CC[n+]1cccc([C@@H]2CCCN2C)c1 [NANI, S-N-allylnicotiniumiodide]",total [3H]overflow (effect on [3H]DA release),[5]; [9],0.02 ± 0.02
same,total [3H]overflow (effect on [3H]DA release),[5]; [10],0.07 ± 0.04
same,total [3H]overflow (effect on [3H]DA release),[5]; [11],0.08 ± 0.03
same,nicotinic antagonist activity / inhibition of nicotine-evoked [3H]DA release (in words),[6],Significant antagonist activity; also recorded: significantly lower potency and efficacy; also recorded: possessing antagonist activity; also recorded: preferred nicotinic receptor antagonist activity
same,relative order of potency for inhibition of nicotine-evoked [3H]DA release (comparison of IC50 values),[6],NBNB=NPNI=NnNBI=NANI>NHENI
same,pKa,physchem; [12],6.4
same,predominant ionization form,physchem; physiological pH,exist predominantly in their unprotonated form at physiological pH
C[N+](C)(C)CCCCCC[N+](C)(C)C [hexamethonium],effect on IR-rCRH secretion (in words),[1],This effect was antagonized by the simultaneous presence of atropine and hexamethonium
"CN1CCC[C@H]1c1cccnc1 [S(-)nicotine, reference compound]",effect of chronic treatment on dopamine 2 agonist binding,[7],decreases dopamine 2 agonist binding in rat basil ganglia
same,effect on [3H]DA release / intrinsic agonist activity (in words),[5],concentration-dependent increase in [^3 H]DA release and was the most potent and efficacious compound; also recorded: concentration-dependent increase in [^3 H]DA release from rat striatal slices
same,total [3H]overflow (effect on [3H]DA release),[5],2.80 ± 0.28 and 3.24 ± 0.37 and 5.56 ± 0.50
same,EC50,"[5]; Rattus norvegicus, read-out: EC50 for nicotine-evoked [3H]DA release",2000 nM
same,effect on IR-rCRH secretion (in words),[1],stimulated IR-rCRH secretion in a dose-dependent fashion
same,"nicotine (10 μM)-evoked total [3H]overflow, grand mean",[6],2.52 ± 0.12
same,"nicotine (10 μM)-evoked total [3H]overflow, range",[6],1.03-4.65
same,effect on [3H]dopamine release from rat striatal synaptosomes,[8],stimulates the release of [3H]dopamine from rat striatal synaptosomes
same,pKa,physchem; pKa of pyridine-N functionality,3.75
same,pKa,physchem; [12],8.4
same,effect on basal outflow of GABA,rabbit caudate nucleus,accelerated the basil outflow of gamma-aminobutyric acid (GABA)
C[N+](C)(C)CCOC(N)=O [carbachol],effect on IR-rCRH secretion (in words),"[1]; in vitro, p less than 0.05 for antagonists of acetylcholine",stimulated IR-rCRH secretion in a dose-dependent fashion
"CCCC[n+]1cccc([C@@H]2CCCN2C)c1 [NnBNI, S-N-nbutyl nicotinium iodine]",total [3H]overflow (effect on [3H]DA release),[5]; [9],0.00 ± 0.00
same,total [3H]overflow (effect on [3H]DA release),[5]; [10],0.01 ± 0.01
same,total [3H]overflow (effect on [3H]DA release),[5]; [11],0.01 ± 0.01
same,nicotinic antagonist activity / inhibition of nicotine-evoked [3H]DA release (in words),[6],Significant antagonist activity; also recorded: significantly lower potency and efficacy; also recorded: preferred nicotinic receptor antagonist activity
same,relative order of potency for inhibition of nicotine-evoked [3H]DA release (comparison of IC50 values),[6],NBNB=NPNI=NnNBI=NANI>NHENI
"O=c1cccc2n1C[C@@H]1CNC[C@H]2C1 [S(-)cytisine, reference compound]",effect on [3H]DA release / intrinsic agonist activity (in words),[5],only marginally released dopamine from the striatal slice
same,total [3H]overflow (effect on [3H]DA release),[5],0.67 ± 0.26 and 0.85 ± 0.38 and 1.13 ± 0.46
same,Emax,"[5]; Rattus norvegicus, read-out: evoked [3H]DA release relative to nicotine",~20%
same,effect on [3H]dopamine release from rat striatal synaptosomes,[8],lesser effect of cytisine compared to nicotine in evoking dopamine release from rat striatal synaptosomes
"CO[C@H]1CC=C2CCN3CCC4=C(CC(=O)OC4)[C@]23C1 [DHBE, dihydro-β-erythroidine, reference compound]",total [3H]overflow (effect on [3H]DA release),[5]; [9],0.02 ± 0.02
same,total [3H]overflow (effect on [3H]DA release),[5]; [10],0.36 ± 0.22
same,total [3H]overflow (effect on [3H]DA release),[5]; [11],2.01 ± 0.28
same,effect on [3H]DA release / intrinsic agonist activity (in words),"[5]; rat striatal slices, 1-100 μM","None of the compounds examined, including DHBE and mecamylmine, had any significant effect on [^3 H]DA release in the concentration range of 1-10 μM; also recorded: also evoked [^3 H]DA release; also recorded: evoked [^3 H]DA release at the highest concentration examined"
same,nicotinic antagonist activity / inhibition of nicotine-evoked [3H]DA release (in words),[6],inhibited but did not completely block nicotine's effect
same,relative order of potency for inhibition of nicotine-evoked [3H]DA release (comparison of IC50 values),[6],DHBE=MEC>>NBNB
CN1[C@@H](CC(=O)c2ccccc2)CCC[C@H]1C[C@H](O)c1ccccc1 [alpha-lobeline],agonist/antagonist character,nicotine receptor,mixed agonist-antagonist
"CN1CCC[C@H]1c1ccc[n+](Cc2ccccc2)c1 [NBNB, S-N-benzyl nicotinium bromide]",total [3H]overflow (effect on [3H]DA release),[5]; [9],0.21 ± 0.12
same,total [3H]overflow (effect on [3H]DA release),[5]; [10],0.28 ± 0.12
same,total [3H]overflow (effect on [3H]DA release),[5]; [11],6.04 ± 0.97
same,effect on [3H]DA release / intrinsic agonist activity (in words),"[5]; rat striatal slices, 1-100 μM","evoked [^3 H]DA release and thus, possess intrinsic agonist activity at this concentration"
same,nicotinic antagonist activity / inhibition of nicotine-evoked [3H]DA release (in words),[6],Significant antagonist activity; also recorded: significantly lower potency and efficacy; also recorded: possessing antagonist activity; also recorded: preferred nicotinic receptor antagonist activity
same,relative order of potency for inhibition of nicotine-evoked [3H]DA release (comparison of IC50 values),[6],NBNB=NPNI=NnNBI=NANI>NHENI
same,total [3H]overflow during cosuperfusion with 10 μM nicotine,[6],1.50 ± 0.55 and 1.27 ± 0.35
